According to patent publication US11725002B2, “Detection reagents and kit for identifying oxidized state and glycated state of low-density lipoproteins” (FUSO PHARMACEUTICAL INDUSTRIES, LTD., priority 2017, dated 2023):

Experiments:
lipid radicals in LDL = experiment: Fluorescence detection of lipid radicals in LDL with NBD-Pen
Experimental: To a solution of 20 μg protein/ml of LDL and 10 μM of NBD-Pen in phosphate buffered saline (PBS) containing 0.5% of MeCN were added 0-3 μM of CuSO4, FeSO4 or Hemin, to generate lipid radicals.
Specifically, to a solution of 20 μg protein/ml of LDL and 10 μM of NBD-Pen in phosphate buffered saline (PBS; pH 7.4) containing 0.5% of MeCN were added 0-3 μM of Hemin, to generate lipid radicals. After incubation for 60 minutes at 37° C., these reacted solutions were investigated by the respective methods.
For fluorescence detection using NBD-Pen according to the present invention, the fluorescence intensities obtained in Example 1 were expressed as ratios based on the results without addition of Hemin.

[1] = system: plaques of thoracic aorta; experiment: Fluorescence mapping of lipid oxide in aorta of arteriosclerosis model mouse; type: in vivo, Apo-E knockout mouse; conditions: high fat diet 3 weeks, 500 μM/kg intraperitoneal, 15 minutes after administration, 470 nm/530 nm
Experimental: A 6-week-old male Apo-E knockout mouse (Apo−/−) was fed with a high fat diet, and 3 weeks later, NBD-Pen was administered at 500 μM/kg by intraperitoneal injection.
Fifteen minutes after NBD-Pen administration, the mouse was subjected to three types of mixed anesthesia and sacrificed, and the thoracic aorta was immediately removed. […] An oil red stained image of plaques of the same aortic sample was taken with a digital camera (FIG. 7b).

[2] = Lipid peroxide (LOOH) detection in LDL with fluorescent probe DPPP; conditions: concentration range used in Example 2
Experimental: The absorption band around 234 nm of conjugated dienes formed during lipid oxidation was tracked by absorbance spectrophotometry. In addition, a measurement was performed by use of diphenyl-1-pyrenylphosphate (DPPP), which is a lipid peroxide (LOOH) detection fluorescent probe.

| Molecule | fluorescence intensities (λex: 470 nm, λem: 530 nm) (lipid radicals in LDL; 20 μg protein/ml LDL, 10 μM NBD-Pen, 0-3 μM CuSO4, FeSO4 or Hemin, 60 minutes at 37° C.) | sensitivity of fluorescence detection (lipid radicals in LDL; Hemin addition, compared with Cu2+ and Fe2+) | match of NBD-Pen fluorescence areas with oil-red stained plaques [1] | detection of lipid peroxides [2] |
| --- | --- | --- | --- | --- |
| 2,2,6-trimethyl-4-(4-nitrobenzo[1,2,5]oxadiazol-7-ylamino)-6-pentylpiperadine-1-oxyl [NBD-Pen] | increased in a concentration-dependent manner | high sensitivity of fluorescence detection | completely matched | – |
| O=P(Oc1ccccc1)(Oc1ccccc1)Oc1ccc2ccc3cccc4ccc1c2c34 [DPPP, diphenyl-1-pyrenylphosphate] | – | – | – | neither method could detect lipid peroxides |
